Assay results as given in paper PMC8899516, “Structure-Activity Relationship Studies of 4-((4-(2-fluorophenyl)piperazin-1-yl)methyl)-6-imino-N-(naphthalen-2-yl)-1,3,5-triazin-2-amine (FPMINT) Analogues as Inhibitors of Human Equilibrative Nucleoside Transporters” (Frontiers in Pharmacology, 2022).

Assays:
[1] = molecular target: T1, ENT1 (Homo sapiens, UniProt Q99808); test: Kinetic study of [3H]uridine uptake in PK15NTD/ENT1 cells; type: cell-based
T1 construct: expressed in transfected cells
T1 sequence (Q99808 1-456): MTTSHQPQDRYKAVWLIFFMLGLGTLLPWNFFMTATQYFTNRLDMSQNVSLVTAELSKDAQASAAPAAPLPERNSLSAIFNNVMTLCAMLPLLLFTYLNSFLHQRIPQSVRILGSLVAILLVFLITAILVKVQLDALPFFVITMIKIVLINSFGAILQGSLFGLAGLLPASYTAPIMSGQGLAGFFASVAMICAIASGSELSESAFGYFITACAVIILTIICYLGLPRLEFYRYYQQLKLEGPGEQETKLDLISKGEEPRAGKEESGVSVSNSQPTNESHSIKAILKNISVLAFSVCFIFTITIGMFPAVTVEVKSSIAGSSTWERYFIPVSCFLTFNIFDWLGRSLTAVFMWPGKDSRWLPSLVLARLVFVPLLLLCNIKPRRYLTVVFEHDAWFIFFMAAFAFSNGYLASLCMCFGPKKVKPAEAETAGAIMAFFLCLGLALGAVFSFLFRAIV
Description: (§1) Nucleoside transporter-deficient porcine kidney fibroblast cells (PK15NTD) stably transfected with cloned human ENT1 or ENT2 ([Ward et al., 2000]) were used as the in vitro models. The cells were cultured in Dulbecco’s Modified Eagle’s Medium (DMEM) supplemented with 10% (v/v) foetal bovine serum, 0.5 mg/ml geneticin, 100 units/ml penicillin, 100 μg/ml streptomycin and 0.25 μg/ml of amphotericin B at 37°C in 5% CO2/95% air.
(§2) Confluent monolayers of PK15NTD/ENT1 and PK15NTD/ENT2 cells in 24-well plates were washed thrice with HEPES-buffered Ringer’s solution containing (mM): 135 NaCl, 10 glucose, 5 KCl, 5 HEPES, 3.33 NaH2PO4, 1.0 CaCl2, 1.0 MgCl2, 0.83 Na2HPO4; pH 7.4. The cells were incubated with different concentrations of FPMINT analogues (from 10 nM to 100 μM) containing [^3H]uridine (2 μCi/ml, 1 μM) for 1 min. Passive uridine uptake was determined by incubating the cells in HEPES-buffered Ringer’s solution containing [^3H]uridine in the presence of 0.5 mM NBMPR. The cells were rapidly washed five times with ice-cold phosphate-buffered saline (PBS). After air-drying, the cells were solubilised by overnight incubation in 500 μl of 5% Triton-X100. Next, 300 μl of the cell lysates were mixed with 2 ml of scintillation liquid. The radioactivity of each sample was quantified by a scintillation counter. The protein content in each well was determined spectrophotometrically using a commercial bicinchoninic acid assay (Pierce Biochemicals, Rockford, IL). Uptake values were expressed as picomoles of [^3H]uridine per milligram of cellular protein per minute.
(§3) All data were analysed by GraphPad Prism software (San Diego, CA, United States). Data are expressed as mean ± standard error (SE) of three experiments performed in triplicate. The IC50 values were determined from the dose-response curves fitted with a logistic function. For the kinetic study of [^3H]uridine uptake, apparent K m and V max values were determined from the Michaelis-Menten equation, and K i was determined from the X-intercept of linear regression. Analysis of variance and Student’s t-test were performed for multiple and paired variables, respectively. p values of <0.05 were considered to be statistically significant.
Compound 3c was selected for further investigation. The kinetic study of [^3H]uridine transport was performed by measuring the concentration-dependent uptake of [^3H]uridine. This study could provide clue about the mode of action of compound 3c. The uptake of [^3H]uridine by ENT1 and ENT2 was saturable and conformed to Michaelis-Menten kinetics. Compound 3c decreased the V max of ENT1 but had no effect on K m . […] The slopes of the linear 1/V versus 1/[S] plots increased with the concentration of compound 3c (Figure 4B).
FIGURE 4 Competitive inhibition of ENT1 and ENT2 by compound 3c. Kinetic study of [^3H]uridine uptake (0.1 μM–1 mM) was measured in (A) PK15NTD/ENT1 and (D) PK15NTD/ENT2 cells in the presence of various concentrations of compound 3c (0, 0.01, 0.1, 1 and 10 µM) (B,E) 1/V versus 1/[S] plots of each curve in (A) and (D), respectively (C,F) The plot of slopes of each line in (B) and (E), respectively, versus the concentration of compound 3c. Data are presented as mean ± SE of three experiments.

[2] = molecular target: T2, ENT2 (Homo sapiens, UniProt Q14542); test: [3H]uridine uptake in PK15NTD/ENT2 cells; type: cell-based; conditions: [3H]uridine 1 μM, 1 min, PK15NTD/ENT2 cells; read-out: IC50 against ENT2
T2 construct: expressed in transfected cells
T2 sequence (Q14542 1-456): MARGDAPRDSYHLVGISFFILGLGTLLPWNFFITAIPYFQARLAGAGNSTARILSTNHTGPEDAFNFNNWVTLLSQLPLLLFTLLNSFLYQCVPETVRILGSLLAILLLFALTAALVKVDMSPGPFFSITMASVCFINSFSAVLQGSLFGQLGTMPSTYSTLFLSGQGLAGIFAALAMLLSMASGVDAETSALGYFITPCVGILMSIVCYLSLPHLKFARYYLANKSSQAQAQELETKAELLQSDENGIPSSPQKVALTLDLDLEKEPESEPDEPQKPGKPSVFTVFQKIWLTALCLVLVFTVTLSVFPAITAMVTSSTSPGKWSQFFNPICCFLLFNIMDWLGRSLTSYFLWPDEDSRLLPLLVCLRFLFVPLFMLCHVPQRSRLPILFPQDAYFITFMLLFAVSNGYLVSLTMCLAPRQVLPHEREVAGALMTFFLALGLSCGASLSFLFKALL
Description: as §1
as §2, with “The” for “Confluent monolayers of PK15NTD/ENT1 and PK15NTD/ENT2 cells in 24-well plates were washed thrice with HEPES-buffered Ringer’s solution containing (mM): 135 NaCl, 10 glucose, 5 KCl, 5 HEPES, 3.33 NaH2PO4, 1.0 CaCl2, 1.0 MgCl2, 0.83 Na2HPO4; pH 7.4. The”
as §3

## Cc1cccc(Nc2nc(N)nc(CN3CCN(c4ccc(F)cc4)CC3)n2)c1 [Compound 3c]
[1]; 0.01 µM compound 3c
  apparent Vmax of ENT1: 2083 ± 36.80 pmol/mg protein/min
[1]; 0.1 µM compound 3c
  apparent Vmax of ENT1: 1867 ± 27.63 pmol/mg protein/min
[1]; 1 µM compound 3c
  apparent Vmax of ENT1: 1377 ± 37.81 pmol/mg protein/min
[1]; 10 µM compound 3c
  apparent Vmax of ENT1: 732.9 ± 12.02 pmol/mg protein/min
[1]; decreased Vmax, apparent Km unchanged
  mode of inhibition of ENT1-mediated uridine transport: non-competitive inhibitor
[1]; x-intercept of slopes versus concentration plot
  Ki: 2790 nM
[2]
  IC50: 570 nM
